Measurements from patent US20210107871A1 (priority 2017, published 2021).

Test system: pseudotype VSV (expressing GFP) having the surface glycoprotein of Ebola virus (zaire sp.)
Assay: microbe, parasite or virus in culture
Type: cell-based
Conditions: Vesicular stomatitis virus, Vero C1008, 18 h, read-out: Viral Infection rate (%); for activity at 0.312 µM: Compound Conc. 0.312 μM; for activity at 0.625 µM: Compound Conc. 0.625 μM; for activity at 1.25 µM: Compound Conc. 1.25 μM; for activity at 2.5 µM: Compound Conc. 2.5 μM; for activity at 5 µM: Compound Conc. 5 μM

**Q.** Which results are given for CCN(CC)CCCN(c1ccc(OC)cc1[N+](=O)[O-])S(=O)(=O)c1ccccc1 [4-1, N-[3-(diethylamino)propyl]-N-(4-methoxy-2-nitro-phenyl)benzensulfonamide]?
**A.** activity at 0.312 µM: 87.5%; activity at 0.625 µM: ~38%; activity at 1.25 µM: ~12%; activity at 2.5 µM: 2.83%; activity at 5 µM: 1.83%

**Q.** CCN(CC)CCCN(c1ccc(OC)cc1[N+](=O)[O-])S(=O)(=O)c1ccc(F)cc1 [4-3, 4-fluoro-N-[3-(diethylamino)propyl]-N-(4-methoxy-2-nitro-phenyl)benzensulfonamide] was tested. Which activity at 0.312 µM did it give?
**A.** 105%

**Q.** What about the activity at 0.625 µM of the same compound?
**A.** 88.1%

**Q.** What about the activity at 1.25 µM of the same compound?
**A.** 52.8%

**Q.** And the activity at 2.5 µM?
**A.** 18.4%

**Q.** What about the activity at 5 µM of the same compound?
**A.** 3.8%

**Q.** CCN(CC)CCCN(c1ccc(OC)cc1[N+](=O)[O-])S(=O)(=O)c1cccc(F)c1 [4-4, 3-fluoro-N-[3-(diethylamino)propyl]-N-(4-methoxy-2-nitro-phenyl)benzensulfonamide] was tested. Which activity at 0.312 µM did it give?
**A.** 84.4%

**Q.** And the activity at 0.625 µM?
**A.** 71.3%

**Q.** And the activity at 1.25 µM?
**A.** 29.7%

**Q.** What about the activity at 2.5 µM of the same compound?
**A.** 8.13%

**Q.** What about the activity at 5 µM of the same compound?
**A.** 2.05%

**Q.** Which results are given for CCN(CC)CCCN(c1ccc(OC)cc1[N+](=O)[O-])S(=O)(=O)c1ccccc1F [4-5, 2-fluoro-N-[3-(diethylamino)propyl]-N-(4-methoxy-2-nitro-phenyl)benzensulfonamide]?
**A.** activity at 0.625 µM: 94.2%; activity at 1.25 µM: 54.9%; activity at 5 µM: 3.18%

**Q.** Which activity at 0.312 µM does the source give for CCN(CC)CCCN(c1ccc(OC)cc1[N+](=O)[O-])S(=O)(=O)c1cccc(C)c1 [4-6, 3-methyl-N-[3-(diethylamino)propyl]-N-(4-methoxy-2-nitro-phenyl)benzenesulfonamide] here?
**A.** 91.2%

**Q.** And the activity at 0.625 µM?
**A.** 91.1%

**Q.** And the activity at 1.25 µM?
**A.** 57.1%

**Q.** What about the activity at 2.5 µM of the same compound?
**A.** 20.1%

**Q.** What about the activity at 5 µM of the same compound?
**A.** 3.8%

**Q.** For CCN(CC)CCCN(c1ccc(OC)cc1[N+](=O)[O-])S(=O)(=O)c1ccccc1C [4-7, 2-methyl-N-[3-(diethylamino)propyl]-N-(4-methoxy-2-nitro-phenyl)benzensulfonamide], which activity at 0.312 µM is on record?
**A.** 87.2%

**Q.** And the activity at 0.625 µM?
**A.** 68.4%

**Q.** And the activity at 1.25 µM?
**A.** 37%

**Q.** And the activity at 2.5 µM?
**A.** 12.9%

**Q.** What about the activity at 5 µM of the same compound?
**A.** 5.08%

**Q.** CCN(CC)CCCN(c1ccccc1-c1ccccc1)S(=O)(=O)c1ccccc1 [4-8, N-[3-(diethylamino)propyl]-N-(2-phenyl-phenyl)benzensulfonamide] was tested. Which activity at 0.312 µM did it give?
**A.** 89%

**Q.** What about the activity at 1.25 µM of the same compound?
**A.** 10.8%

**Q.** What about the activity at 2.5 µM of the same compound?
**A.** 1.93%

**Q.** And the activity at 5 µM?
**A.** 1.11%

**Q.** Which results are given for CCN(CC)CCCN(c1ccc(OC)cc1[N+](=O)[O-])S(=O)(=O)c1cccc2ccccc12 [4-9, N-[3-(diethylamino)propyl]-N-(4-methoxy-2-nitro-phenyl)naphthalene-1-sulfonamide]?
**A.** activity at 0.312 µM: 82.5%; activity at 0.625 µM: 58.6%; activity at 1.25 µM: 20.8%; activity at 5 µM: 2.32%

**Q.** Which activity at 0.312 µM does the source give for CCN(CC)CCCN(c1ccc(OC)cc1[N+](=O)[O-])S(=O)(=O)c1ccc2ccccc2c1 [4-10, N-[3-(diethylamino)propyl]-N-(4-methoxy-2-nitro-phenyl)naphthalene-2-sulfonamide] here?
**A.** 106%

**Q.** What about the activity at 0.625 µM of the same compound?
**A.** 103%

**Q.** And the activity at 2.5 µM?
**A.** 22.7%

**Q.** What about the activity at 5 µM of the same compound?
**A.** 3.57%

**Q.** CCN(CC)CCCN(c1ccc(OC)cc1[N+](=O)[O-])S(=O)(=O)c1ccc(OC)cc1 [4-11, 4-methoxy-N-[3-(diethylamino)propyl]-N-(4-methoxy-2-nitro-phenyl)benzensulfonamide] was tested. Which activity at 0.312 µM did it give?
**A.** 88.3%

**Q.** What about the activity at 5 µM of the same compound?
**A.** 2.09%

**Q.** For CCN(CC)CCCN(c1ccccc1-c1ccccc1)S(=O)(=O)c1cccc2ccccc12 [4-13, N-[3-(diethylamino)propyl]-N-(2-phenyl-phenyl)naphthalene-1-sulfonamide], which activity at 0.625 µM is on record?
**A.** 90.2%

**Q.** CCN(CC)CCCN(c1ccccc1-c1ccccc1)S(=O)(=O)c1ccc(OC)cc1 [4-14, 4-methoxy-N-[3-(diethylamino)propyl]-N-(2-phenyl-phenyl)benzensulfonamide] was tested. Which activity at 0.312 µM did it give?
**A.** 77.4%

**Q.** And the activity at 0.625 µM?
**A.** 42.2%

**Q.** And the activity at 1.25 µM?
**A.** 7.82%

**Q.** What about the activity at 5 µM of the same compound?
**A.** 0.83%

**Q.** With COc1ccc(N(CC2CCN(C(=O)OC(C)(C)C)CC2)S(=O)(=O)c2ccccc2)c(-c2ccccc2)c1 [4-18, t-butyl-4-[[N-(benzenesulfonyl)-4-methoxy-2-phenyl-anilino]methyl]piperidine-1-carboxylate] as the compound, how does the activity at 5 µM read?
**A.** 23.3%

**Q.** With COc1ccc(N(CC2CCNCC2)S(=O)(=O)c2ccccc2)c(-c2ccccc2)c1 [4-19, N-(4-methoxy-2-phenyl-phenyl)-N-(4-piperidylmethyl)benzensulfonamide] as the compound, how does the activity at 0.312 µM read?
**A.** 83.3%

**Q.** And the activity at 0.625 µM?
**A.** 78.5%

**Q.** What about the activity at 1.25 µM of the same compound?
**A.** 52.3%

**Q.** And the activity at 5 µM?
**A.** 2.2%

**Q.** Which activity at 5 µM does the source give for COc1ccc(N(CC2CCCN(C(=O)OC(C)(C)C)C2)S(=O)(=O)c2ccccc2)c(-c2ccccc2)c1 (stereo not shown) [4-22, t-butyl-3-[[N-(benzenesulfonyl)-4-methoxy-2-phenyl-anilino]methyl]piperidine-1-carboxylate] here?
**A.** ~8.7%

**Q.** With COc1ccc(N(CC2CCCNC2)S(=O)(=O)c2ccccc2)c(-c2ccccc2)c1 (stereo not shown) [4-23, N-(4-methoxy-2-phenyl-phenyl)-N-(3-piperidylmethyl)benzensulfonamide] as the compound, how does the activity at 0.312 µM read?
**A.** 100%

**Q.** And the activity at 2.5 µM?
**A.** ~24.4%

**Q.** What about the activity at 5 µM of the same compound?
**A.** 1.79%

**Q.** For CCN1CCCC(CN(c2ccc(OC)cc2-c2ccccc2)S(=O)(=O)c2ccccc2)C1 (stereo not shown) [4-25], which activity at 0.312 µM is on record?
**A.** 58.1%

**Q.** And the activity at 0.625 µM?
**A.** 24.3%

**Q.** What about the activity at 1.25 µM of the same compound?
**A.** 2.51%

**Q.** What about the activity at 2.5 µM of the same compound?
**A.** 0.14%

**Q.** And the activity at 5 µM?
**A.** 0.14%

**Q.** What does the source list for CNCCCN(c1ccc(OC)cc1-c1ccccc1)S(=O)(=O)c1ccccc1 [4-30, N-(4-methoxy-2-phenyl-phenyl)-N-[3-(methylamino)propyl]-benzensulfonamide]?
**A.** activity at 0.005 µM (Compound Conc. 0.005 μM): 92.6%; activity at 0.02 µM (Compound Conc. 0.020 μM): 91%; activity at 0.078 µM (Compound Conc. 0.078 μM): 78.1%; activity at 0.625 µM: 80.8%; activity at 2.5 µM: 4.17%

**Q.** How did the activity at 0.312 µM turn out when COc1ccc(N(CCCNC(=O)OC(C)(C)C)S(=O)(=O)c2ccccc2)c(-c2ccccc2)c1 [4-31, t-butyl-N-[3-[N-(benzenesulfonyl)-4-methoxy-2-phenyl-anilino]propyl]carbamate] was run?
**A.** ~100%

**Q.** And the activity at 5 µM?
**A.** 8.51%

**Q.** With COc1ccc(N(CCCN)S(=O)(=O)c2ccccc2)c(-c2ccccc2)c1 [4-32, N-(3-aminopropyl)-N-(4-methoxy-2-phenyl-phenyl)benzensulfonamide] as the compound, how does the activity at 0.312 µM read?
**A.** 86%

**Q.** What about the activity at 0.625 µM of the same compound?
**A.** 82.4%

**Q.** And the activity at 1.25 µM?
**A.** 57.8%

**Q.** And the activity at 2.5 µM?
**A.** 15.8%

**Q.** And the activity at 5 µM?
**A.** 0.47%

**Q.** COc1ccc(N(CCN(C)C)S(=O)(=O)c2ccccc2)c(-c2ccccc2)c1 [4-33, N-[3-(dimethylamimo)ethyl]-N-(4-methoxy-2-phenyl-phenyl)benzensulfonamide] was tested. Which activity at 0.312 µM did it give?
**A.** 81.1%

**Q.** What about the activity at 0.625 µM of the same compound?
**A.** 71.3%

**Q.** What about the activity at 1.25 µM of the same compound?
**A.** 17.1%

**Q.** And the activity at 2.5 µM?
**A.** 1.51%

**Q.** What about the activity at 5 µM of the same compound?
**A.** 0.1%

**Q.** How did the activity at 1.25 µM turn out when COc1ccc(N(CCN2CCOCC2)S(=O)(=O)c2ccccc2)c(-c2ccccc2)c1 [4-34, N-(4-methoxy-2-phenyl-phenyl)-N-(2-morpholinoethyl)benzensulfonamide] was run?
**A.** 76.9%

**Q.** And the activity at 2.5 µM?
**A.** 40.2%

**Q.** What about the activity at 5 µM of the same compound?
**A.** 4.56%

**Q.** With COc1ccc(N(CCN2CCCCC2)S(=O)(=O)c2ccccc2)c(-c2ccccc2)c1 [4-35, N-(4-methoxy-2-phenyl-phenyl)-N-[2-(1-piperidyl)ethyl]benzensulfonamide] as the compound, how does the activity at 0.312 µM read?
**A.** 89.5%

**Q.** And the activity at 0.625 µM?
**A.** 82.3%

**Q.** What about the activity at 1.25 µM of the same compound?
**A.** 1.82%

**Q.** And the activity at 2.5 µM?
**A.** 30.3%
